Experimental data from PubChem BioAssay (NCI).
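Exposure lasted 48 hours, with cells grown in 96-well plates and compounds tested at five concentrations. The concentration for 50% growth inhibition is given as GI50. TGI is the concentration that stops growth completely.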

Assays:
Assay in all cases: NCI anticancer screen, dose series, 48 h
HS 578T breast = tested on: HS 578T breast
KM12 colon = tested on: KM12 colon
MDA-MB-231 breast = tested on: MDA-MB-231 breast
OVCAR-5 ovarian = tested on: OVCAR-5 ovarian
OVCAR-8 ovarian = tested on: OVCAR-8 ovarian
RPMI-8226 leukemia = tested on: RPMI-8226 leukemia
SR leukemia = tested on: SR leukemia
SW-620 colon = tested on: SW-620 colon
UO-31 renal = tested on: UO-31 renal
HCC-2998 colon = tested on: HCC-2998 colon

c1ccc(NCCSc2nc3ccccc3s2)cc1
TGI (HS 578T breast): > 100 µM | TGI (KM12 colon): > 100 µM | TGI (MDA-MB-231 breast): > 100 µM | TGI (OVCAR-5 ovarian): > 100 µM | TGI (OVCAR-8 ovarian): > 100 µM | TGI (RPMI-8226 leukemia): > 100 µM | TGI (SR leukemia): > 100 µM | TGI (SW-620 colon): > 100 µM | TGI (UO-31 renal): > 100 µM

Clc1nc(Cl)c2ncn(Cc3ccccc3Cn3cnc4c(Cl)nc(Cl)nc43)c2n1
GI50 (HCC-2998 colon): 1.88 µM | TGI (HCC-2998 colon): 3.56 µM | GI50 (HS 578T breast): 2.87 µM | TGI (HS 578T breast): 9.39 µM | GI50 (KM12 colon): 2.23 µM | TGI (KM12 colon): 5.37 µM | GI50 (MDA-MB-231 breast): 1.55 µM | TGI (MDA-MB-231 breast): 3.01 µM | GI50 (OVCAR-5 ovarian): 5.09 µM | TGI (OVCAR-5 ovarian): 10.4 µM | GI50 (OVCAR-8 ovarian): 2.9 µM | TGI (OVCAR-8 ovarian): 9.12 µM | GI50 (SR leukemia): 2.17 µM | TGI (SR leukemia): 5.15 µM | GI50 (SW-620 colon): 1.67 µM | TGI (SW-620 colon): 3.33 µM | GI50 (UO-31 renal): 1.91 µM | TGI (UO-31 renal): 3.85 µM

Cn1c(=S)c2[nH]c(SCCCc3ccccc3)nc2n(C)c1=O
TGI (HS 578T breast): > 100 µM | TGI (KM12 colon): > 100 µM | TGI (MDA-MB-231 breast): > 100 µM | TGI (OVCAR-5 ovarian): 93.3 µM | TGI (OVCAR-8 ovarian): > 100 µM | TGI (RPMI-8226 leukemia): 92.6 µM | TGI (SR leukemia): 27.4 µM | TGI (SW-620 colon): > 100 µM | TGI (UO-31 renal): 64.4 µM

CNC(C)[C@H]1CCC2C3CC=C4C(=O)[C@@H](NC(=O)C=C(C)C)CC[C@]4(C)C3CC[C@@]21C (some centres undefined)
GI50 (HCC-2998 colon): 0.626 µM | TGI (HCC-2998 colon): 3.02 µM | GI50 (HS 578T breast): 1.87 µM | TGI (HS 578T breast): 6.82 µM | GI50 (KM12 colon): 2.46 µM | TGI (KM12 colon): 10.3 µM | GI50 (MDA-MB-231 breast): 1.89 µM | TGI (MDA-MB-231 breast): 4.74 µM | GI50 (OVCAR-5 ovarian): 2.53 µM | TGI (OVCAR-5 ovarian): 10.9 µM | GI50 (OVCAR-8 ovarian): 3.91 µM | TGI (OVCAR-8 ovarian): 20.2 µM | GI50 (RPMI-8226 leukemia): 1.13 µM | TGI (RPMI-8226 leukemia): 5.27 µM | GI50 (SW-620 colon): 1.7 µM | TGI (SW-620 colon): 4.03 µM | GI50 (UO-31 renal): 1.33 µM | TGI (UO-31 renal): 3.14 µM

C=CCn1c(SCC(=O)Nc2ccc(C(=O)/C=C/c3cc(OC)c(OC)c(OC)c3)cc2)nnc1-c1ccc(OC)cc1
GI50 (HCC-2998 colon): 0.175 µM | TGI (HCC-2998 colon): 0.379 µM | GI50 (HS 578T breast): 2.12 µM | TGI (HS 578T breast): 56.7 µM | GI50 (KM12 colon): 0.315 µM | TGI (KM12 colon): 1.5 µM | GI50 (MDA-MB-231 breast): 0.888 µM | TGI (MDA-MB-231 breast): 29.9 µM | GI50 (OVCAR-8 ovarian): 0.755 µM | TGI (OVCAR-8 ovarian): 10 µM | GI50 (RPMI-8226 leukemia): 0.202 µM | TGI (RPMI-8226 leukemia): 0.68 µM | GI50 (SR leukemia): 0.255 µM | TGI (SR leukemia): > 46.1 µM | GI50 (SW-620 colon): 0.397 µM | TGI (SW-620 colon): > 47.4 µM

COc1cc(/C=C/C(=O)C(C(=O)/C=C/c2ccc(OC(=O)CCNC34CC5CC(CC(C5)C3)C4)c(OC)c2)C(=O)CCNC23CC4CC(CC(C4)C2)C3)ccc1OC(=O)CCNC12CC3CC(CC(C3)C1)C2 (centres undefined)
GI50 (HCC-2998 colon): 1.93 µM | TGI (HCC-2998 colon): 3.84 µM | GI50 (HS 578T breast): 2.1 µM | TGI (HS 578T breast): 6.84 µM | GI50 (KM12 colon): 2.28 µM | TGI (KM12 colon): 5.96 µM | GI50 (MDA-MB-231 breast): 3.99 µM | TGI (MDA-MB-231 breast): 26.5 µM | GI50 (OVCAR-5 ovarian): 5.65 µM | TGI (OVCAR-5 ovarian): 19.6 µM | GI50 (OVCAR-8 ovarian): 1.62 µM | TGI (OVCAR-8 ovarian): 5.18 µM | GI50 (RPMI-8226 leukemia): 2.12 µM | TGI (RPMI-8226 leukemia): 5.02 µM | GI50 (SW-620 colon): 2.42 µM | TGI (SW-620 colon): 6.48 µM | GI50 (UO-31 renal): 2.71 µM | TGI (UO-31 renal): 18.7 µM

O=[N+]([O-])c1ccc(Sc2c3ccccc3nc3ccccc23)cn1
TGI (HCC-2998 colon): > 81.7 µM | TGI (HS 578T breast): 29.7 µM | TGI (KM12 colon): 95.1 µM | TGI (MDA-MB-231 breast): 42.5 µM | TGI (OVCAR-5 ovarian): > 100 µM | TGI (OVCAR-8 ovarian): 52.5 µM | TGI (SR leukemia): > 100 µM | TGI (SW-620 colon): > 57.4 µM | TGI (UO-31 renal): 32.3 µM

CC(=O)NC1CONC1=O (centres undefined)
TGI (HS 578T breast): > 100 µM | TGI (KM12 colon): > 100 µM | TGI (MDA-MB-231 breast): > 100 µM | TGI (OVCAR-5 ovarian): > 100 µM | TGI (OVCAR-8 ovarian): > 100 µM | TGI (RPMI-8226 leukemia): > 100 µM | TGI (SR leukemia): > 100 µM | TGI (SW-620 colon): > 100 µM | TGI (UO-31 renal): > 100 µM

COC(=O)C(=O)CC(=O)c1cccc(OC)c1
TGI (HCC-2998 colon): > 100 µM | TGI (HS 578T breast): > 100 µM | TGI (KM12 colon): > 100 µM | TGI (MDA-MB-231 breast): > 100 µM | TGI (OVCAR-5 ovarian): > 100 µM | TGI (OVCAR-8 ovarian): > 100 µM | TGI (RPMI-8226 leukemia): > 100 µM | TGI (SW-620 colon): > 100 µM | TGI (UO-31 renal): > 100 µM

COc1cc(/C=C/C(=O)Oc2ccccc2)ccc1C(=O)O/C=C/c1ccccc1
TGI (HCC-2998 colon): > 100 µM | TGI (HS 578T breast): > 100 µM | TGI (KM12 colon): > 100 µM | TGI (MDA-MB-231 breast): > 100 µM | TGI (OVCAR-5 ovarian): > 100 µM | TGI (OVCAR-8 ovarian): > 100 µM | TGI (RPMI-8226 leukemia): > 100 µM | TGI (SW-620 colon): > 100 µM | TGI (UO-31 renal): > 100 µM

Cn1cc(S(=O)(=O)N2CCC3=Cc4c(cnn4-c4ccc(F)cc4)C[C@]3(C(=O)c3cc(C(F)(F)F)ccn3)C2)cn1
GI50 (HCC-2998 colon): > 100 µM | TGI (HCC-2998 colon): > 100 µM | GI50 (HS 578T breast): 37.8 µM | TGI (HS 578T breast): > 100 µM | GI50 (KM12 colon): 75.8 µM | TGI (KM12 colon): > 100 µM | GI50 (MDA-MB-231 breast): > 100 µM | TGI (MDA-MB-231 breast): > 100 µM | GI50 (OVCAR-5 ovarian): > 100 µM | TGI (OVCAR-5 ovarian): > 100 µM | GI50 (OVCAR-8 ovarian): > 100 µM | TGI (OVCAR-8 ovarian): > 100 µM | GI50 (RPMI-8226 leukemia): 93.7 µM | TGI (RPMI-8226 leukemia): > 100 µM | GI50 (SW-620 colon): > 100 µM | TGI (SW-620 colon): > 100 µM | GI50 (UO-31 renal): 9.52 µM | TGI (UO-31 renal): > 100 µM

c1ccc2c(c1)c1ccccc1c1ccccc21
GI50 (HCC-2998 colon): > 100 µM | TGI (HCC-2998 colon): > 100 µM | GI50 (HS 578T breast): > 100 µM | TGI (HS 578T breast): > 100 µM | GI50 (KM12 colon): > 100 µM | TGI (KM12 colon): > 100 µM | GI50 (MDA-MB-231 breast): 87.2 µM | TGI (MDA-MB-231 breast): > 100 µM | GI50 (OVCAR-5 ovarian): > 100 µM | TGI (OVCAR-5 ovarian): > 100 µM | GI50 (OVCAR-8 ovarian): > 100 µM | TGI (OVCAR-8 ovarian): > 100 µM | GI50 (RPMI-8226 leukemia): > 100 µM | TGI (RPMI-8226 leukemia): > 100 µM | GI50 (SW-620 colon): > 100 µM | TGI (SW-620 colon): > 100 µM | GI50 (UO-31 renal): > 100 µM | TGI (UO-31 renal): > 100 µM

CC(Cl)CN1c2ccccc2Sc2ccc(Cl)cc21 (centres undefined)
TGI (HCC-2998 colon): > 10 µM | TGI (HS 578T breast): > 10 µM | TGI (KM12 colon): > 10 µM | TGI (MDA-MB-231 breast): > 10 µM | TGI (OVCAR-5 ovarian): > 10 µM | TGI (OVCAR-8 ovarian): > 10 µM | TGI (RPMI-8226 leukemia): > 10 µM | TGI (SW-620 colon): > 10 µM | TGI (UO-31 renal): > 10 µM
